Data taken from patent publication US9695155B2, “Herbicidal substituted pyrimidinyloxy benzene compounds” (E. I. DU PONT DE NEMOURS AND COMPANY, priority 2013, dated 2017).

Columns and labels:
[1] = system: large (Lg) crabgrass; experiment: Test A preemergence; assay type: in vivo, Digitaria sanguinalis; settings: for Crabgrass, Large plant response rating: 500 g ai/ha
In short: (§1)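 Scoring: eye-based comparison with untreated controls, 0 for no effect through 100 for complete control, at about day 10. Treatments: directed soil spray preemergence; foliar spray postemergence on 2–10 cm plants at the one- to two-leaf stage. Medium: loam soil with sand.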

[2] = system: giant foxtail; experiment: Test A preemergence; assay type: in vivo, Setaria faberii; settings: for Foxtail, Giant plant response rating: 500 g ai/ha
In short: as §1

[3] = system: morningglory; experiment: Test A preemergence; assay type: in vivo, Ipomoea spp.; settings: for Morningglory plant response rating: 500 g ai/ha
In short: as §1

[4] = system: wheat; experiment: Test A preemergence; assay type: in vivo, Triticum aestivum; settings: for Wheat plant response rating: 500 g ai/ha
In short: as §1

[5] = system: large (Lg) crabgrass; experiment: Test A postemergence; assay type: in vivo, Digitaria sanguinalis; settings: 0 to 100 scale where 0 is no effect and 100 is complete control
In short: as §1

[6] = system: giant foxtail; experiment: Test A postemergence; assay type: in vivo, Setaria faberii; settings: 0 to 100 scale where 0 is no effect and 100 is complete control
In short: as §1

[7] = system: velvetleaf; experiment: Test A postemergence; assay type: in vivo, Abutilon theophrasti; settings: 0 to 100 scale where 0 is no effect and 100 is complete control
In short: as §1

[8] = system: corn; experiment: Test A postemergence; assay type: in vivo, Zea mays; settings: 0 to 100 scale where 0 is no effect and 100 is complete control
In short: as §1

[9] = system: rice; experiment: Test B flooded paddy test; assay type: in vivo, Oryza sativa; settings: Flood, 250 g ai/ha; 0 to 100 scale where 0 is no effect and 100 is complete control
In short: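 Visual ratings on a 0 to 100 scale, where 100 means complete control, compared treated plants with controls after 13 to 15 days in a greenhouse. Treatment went into paddy water 3 cm deep over the soil, applied to plants at the 2-leaf stage.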

[10] = system: Italian ryegrass; experiment: Test C postemergence; assay type: in vivo, Lolium multiflorum; settings: for Ryegrass, Italian plant response rating / Plant response rating, Ryegrass, Italian: scale 0 to 100 (0 no effect, 100 complete control)
In short: (§2)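 Greenhouse herbicide screen. Pre: seeded loam/sand, sprayed at planting. Post: 1–4 leaf plants (2–18 cm) in peat-based mix. Formulation: solvent mixture + surfactant, non-phytotoxic. Readout: visual % control vs untreated, 13–15 d; dash = not tested.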

[11] = system: morningglory; experiment: Test C postemergence; assay type: in vivo, Ipomoea coccinea; settings: for Morningglory plant response rating / Plant response rating, Morningglory: scale 0 to 100 (0 no effect, 100 complete control)
In short: as §2

[12] = system: yellow nutsedge; experiment: Test C postemergence; assay type: in vivo, Cyperus esculentus; settings: for Nutsedge, Yellow plant response rating / Plant response rating, Nutsedge, Yellow: scale 0 to 100 (0 no effect, 100 complete control)
In short: as §2

[13] = system: pigweed; experiment: Test C postemergence; assay type: in vivo, Amaranthus retroflexus; settings: for Pigweed plant response rating / Plant response rating, Pigweed: scale 0 to 100 (0 no effect, 100 complete control)
In short: as §2

[14] = system: kochia; experiment: Test C postemergence; assay type: in vivo, Kochia scoparia; settings: for Kochia plant response rating / Plant response rating, Kochia: scale 0 to 100 (0 no effect, 100 complete control)
In short: as §2

[15] = system: wild oat; experiment: Test C postemergence; assay type: in vivo, Avena fatua; settings: for Oat, Wild plant response rating / Plant response rating, Oat, Wild: scale 0 to 100 (0 no effect, 100 complete control)
In short: as §2

[16] = 0 to 100 scale where 0 is no effect and 100 is complete control
[17] = 16 g ai/ha, postemergence, 0 is no effect, 100 is complete control
[18] = 31 g ai/ha, postemergence, visual rating, 13 to 15 days
[19] = 125 g ai/ha, postemergence, visual rating
[20] = 125 g ai/ha, 0 to 100 scale where 0 is no effect and 100 is complete control
[21] = 0 to 100 scale, 0 no effect, 100 complete control, approx. 10 days
[22] = Postemergence, 31 g ai/ha, 13 to 15 days
[23] = Postemergence, 62 g ai/ha, 13 to 15 days

Cc1cnc(Oc2cccc(C#N)c2-n2cc(C(F)(F)F)cn2)nc1 [Compound 180]
Crabgrass, Large plant response rating (0 to 100 scale) ([1]; 125 g ai/ha): 100 | Crabgrass, Large plant response rating [1, 16]: 100 | Foxtail, Giant plant response rating (0 to 100 scale) ([2]; 125 g ai/ha): 100 | Foxtail, Giant plant response rating [2, 16]: 100 | Morningglory plant response rating (0 to 100 scale) ([3]; 125 g ai/ha): 90 | Morningglory plant response rating [3, 16]: 100 | Wheat plant response rating (0 to 100 scale) ([4]; 125 g ai/ha): 20 | Wheat plant response rating [4, 16]: 80 | Crabgrass, Large plant response rating ([5]; 125 g ai/ha): 90 | Plant response rating, Crabgrass, Large ([5]; 500 g ai/ha): 90 | Foxtail, Giant plant response rating ([6]; 125 g ai/ha): 90 | Plant response rating, Foxtail, Giant ([6]; 500 g ai/ha): 90 | Velvetleaf plant response rating ([7]; 125 g ai/ha): 100 | Plant response rating, Velvetleaf ([7]; 500 g ai/ha): 100 | Corn plant response rating ([8]; 125 g ai/ha): 70 | Plant response rating, Corn ([8]; 500 g ai/ha): 90 | Plant response rating, Rice [9]: 40 | Plant response rating (0 to 100), Ryegrass, Italian [10, 17]: 0 | Ryegrass, Italian plant response rating [10, 18]: 0 | Plant response rating, Ryegrass, Italian [10, 19]: 10 | Plant response rating, Ryegrass, Italian ([10]; Postemergence, 62 g ai/ha): 5 | Plant response rating (0 to 100), Morningglory [11, 17]: 45 | Morningglory plant response rating [11, 18]: 65 | Plant response rating, Morningglory [11, 19]: 90 | Plant response rating, Morningglory ([11]; Postemergence, 62 g ai/ha): 75 | Plant response rating (0 to 100), Nutsedge, Yellow [12, 17]: 0 | Nutsedge, Yellow plant response rating [12, 18]: 0 | Plant response rating, Nutsedge, Yellow [12, 19]: 10 | Plant response rating, Nutsedge, Yellow ([12]; Postemergence, 62 g ai/ha): 10 | Plant response rating (0 to 100), Pigweed [13, 17]: 10 | Pigweed plant response rating [13, 18]: 55 | Plant response rating, Pigweed [13, 19]: 70 | Plant response rating, Pigweed ([13]; Postemergence, 62 g ai/ha): 60 | Plant response rating (0 to 100), Kochia [14, 17]: 40 | Kochia plant response rating [14, 18]: 50 | Plant response rating, Kochia [14, 19]: 60 | Plant response rating, Kochia ([14]; Postemergence, 62 g ai/ha): 50 | Plant response rating (0 to 100), Oat, Wild [15, 17]: 5 | Oat, Wild plant response rating [15, 18]: 10 | Plant response rating, Oat, Wild [15, 19]: 30 | Plant response rating, Oat, Wild ([15]; Postemergence, 62 g ai/ha): 20

N#Cc1cccc(Oc2ncc(Cl)cn2)c1-n1cc(OC(F)F)cn1 [Compound 97]
Plant response rating, Crabgrass, Large [1, 20]: 100 | Crabgrass, Large plant response rating [1, 21]: 100 | Plant response rating, Foxtail, Giant [2, 20]: 100 | Foxtail, Giant plant response rating [2, 21]: 100 | Plant response rating, Morningglory [3, 20]: 100 | Morningglory plant response rating [3, 21]: 100 | Plant response rating, Wheat [4, 20]: 0 | Plant response rating, Crabgrass, Large ([5]; 125 g ai/ha): 90 | Plant response rating, Crabgrass, Large ([5]; 500 g ai/ha): 100 | Plant response rating, Foxtail, Giant ([6]; 125 g ai/ha): 90 | Plant response rating, Foxtail, Giant ([6]; 500 g ai/ha): 90 | Plant response rating, Velvetleaf ([7]; 125 g ai/ha): 100 | Plant response rating, Velvetleaf ([7]; 500 g ai/ha): 100 | Plant response rating, Corn ([8]; 125 g ai/ha): 60 | Plant response rating, Corn ([8]; 500 g ai/ha): 90 | Plant response rating, Rice [9]: 0 | Plant response rating (0 to 100), Ryegrass, Italian ([10]; 125 g ai/ha, postemergence): 15 | Plant response rating, Ryegrass, Italian [10, 22]: 5 | Plant response rating, Ryegrass, Italian ([10]; Postemergence, 62 g ai/ha): 5 | Plant response rating (0 to 100), Morningglory ([11]; 125 g ai/ha, postemergence): 95 | Plant response rating, Morningglory [11, 22]: 85 | Plant response rating, Morningglory ([11]; Postemergence, 62 g ai/ha): 85 | Plant response rating (0 to 100), Nutsedge, Yellow ([12]; 125 g ai/ha, postemergence): 5 | Plant response rating, Nutsedge, Yellow [12, 22]: 5 | Plant response rating, Nutsedge, Yellow ([12]; Postemergence, 62 g ai/ha): 5 | Plant response rating (0 to 100), Pigweed ([13]; 125 g ai/ha, postemergence): 95 | Plant response rating, Pigweed [13, 22]: 85 | Plant response rating, Pigweed ([13]; Postemergence, 62 g ai/ha): 85 | Kochia plant response rating ([14]; 16 g ai/ha, postemergence, visual rating, 13 to 15 days): 80 | Plant response rating (0 to 100), Kochia ([14]; 125 g ai/ha, postemergence): 100 | Plant response rating, Kochia [14, 22]: 90 | Plant response rating, Kochia ([14]; Postemergence, 62 g ai/ha): 95 | Plant response rating (0 to 100), Oat, Wild ([15]; 125 g ai/ha, postemergence): 25 | Plant response rating, Oat, Wild [15, 22]: 10 | Plant response rating, Oat, Wild ([15]; Postemergence, 62 g ai/ha): 15

Clc1cnc(Oc2cccc(Cl)c2-n2cc(Cl)cn2)nc1 [Compound 220]
Crabgrass, Large plant response rating (0 to 100 scale) ([1]; 125 g ai/ha): 100 | Crabgrass, Large plant response rating [1, 16]: 100 | Foxtail, Giant plant response rating (0 to 100 scale) ([2]; 125 g ai/ha): 100 | Foxtail, Giant plant response rating [2, 16]: 100 | Morningglory plant response rating (0 to 100 scale) ([3]; 125 g ai/ha): 0 | Morningglory plant response rating [3, 16]: 40 | Wheat plant response rating (0 to 100 scale) ([4]; 125 g ai/ha): 0 | Wheat plant response rating [4, 16]: 20 | Crabgrass, Large plant response rating ([5]; 125 g ai/ha): 100 | Plant response rating, Crabgrass, Large ([5]; 500 g ai/ha): 100 | Foxtail, Giant plant response rating ([6]; 125 g ai/ha): 80 | Plant response rating, Foxtail, Giant ([6]; 500 g ai/ha): 90 | Velvetleaf plant response rating ([7]; 125 g ai/ha): 100 | Plant response rating, Velvetleaf ([7]; 500 g ai/ha): 100 | Corn plant response rating ([8]; 125 g ai/ha): 40 | Plant response rating, Corn ([8]; 500 g ai/ha): 70 | Plant response rating, Rice [9]: 0 | Plant response rating (0 to 100), Ryegrass, Italian [10, 17]: 0 | Ryegrass, Italian plant response rating [10, 18]: 0 | Plant response rating, Ryegrass, Italian [10, 19]: 10 | Plant response rating, Ryegrass, Italian [10, 23]: 5 | Plant response rating (0 to 100), Morningglory [11, 17]: 15 | Morningglory plant response rating [11, 18]: 50 | Plant response rating, Morningglory [11, 19]: 50 | Plant response rating, Morningglory [11, 23]: 40 | Plant response rating (0 to 100), Nutsedge, Yellow [12, 17]: 10 | Nutsedge, Yellow plant response rating [12, 18]: 0 | Plant response rating, Nutsedge, Yellow [12, 19]: 5 | Plant response rating, Nutsedge, Yellow [12, 23]: 0 | Plant response rating (0 to 100), Pigweed [13, 17]: 65 | Pigweed plant response rating [13, 18]: 75 | Plant response rating, Pigweed [13, 19]: 90 | Plant response rating, Pigweed [13, 23]: 85 | Plant response rating (0 to 100), Kochia [14, 17]: 90 | Kochia plant response rating [14, 18]: 90 | Plant response rating, Kochia [14, 19]: 95 | Plant response rating, Kochia [14, 23]: 95 | Plant response rating (0 to 100), Oat, Wild [15, 17]: 5 | Oat, Wild plant response rating [15, 18]: 25 | Plant response rating, Oat, Wild [15, 19]: 50 | Plant response rating, Oat, Wild [15, 23]: 35
